System: MCF-7/Dox cell, which is MCF-7 expressing p-glycoprotein
Conditions: enhancement of anticancer activity of paclitaxel against MCF7/Dox; ED50 of paclitaxel alone / ED50 with 50 nM test compound
Description: The cells were subcultured in 5% FBS (fetal bovine serum)/RPMI1640 medium supplemented with glutamine 2 mmol, sodium bicarbonate 3.7 g/L and gentamicin 10 mg/L at 37° C. in 5% CO2 incubator under 100% humidity, and collected using a 0.25% trypsin solution containing 3 mM 1,2-cyclohenxandiamine tetraacetic acid.
The collected cells were plated on a 96 well flat-bottomed plate at a density of 2×10^3 cells/well, and incubated in the same medium for 24 hours. Paclitaxel, an anticancer agent, was diluted with the same medium to obtain 10^−11˜10^−6 M test solutions. […] After incubating for 72 hours, the culture medium was removed, each well was treated with 10% trichloroacetic acid for 1 hour to fix the cells, washed with water, and dried at room temperature. After adding a dyeing solution containing 1% acetic acid with 0.4% SRB (sulforhodamine B) thereto, the wells were kept at room temperature for 30 min, and washed with 1% acetic acid to remove remaining SRB. […] Also, the enhancement of the anticancer activity of paclitaxel against MCF7/Dox (resistant cancer cells) was measured by determining ED^PAC50/ED50, wherein ED^PAC50 is the value determined for the case of paclitaxel alone.

SMILES | ED50^PAC/ED50
COc1cc2c(cc1OC)CN(CCc1ccc(-n3nnc(-c4cc(OC)c(OC)cc4NC(=O)c4ccc5ccccc5n4)n3)cc1)CC2 [Example 2, quinoline-2-carboxylic acid [2-(2-{4-[2-(6,7-dimethoxy-3,4-dihydro-1H-isoquinolin-2-yl)-ethyl]-phenyl}-2H-tetrazol-5-yl)-4,5-dimethoxy-phenyl]-amide] | 2.7
COc1cc2c(cc1OC)CN(CCc1ccc(-n3nnc(-c4cc(OC)c(OC)cc4NC(=O)c4cc5ccccc5cn4)n3)cc1)CC2 [Example 3, isoquinoline-3-carboxylic acid [2-(2-{4-[2-(6,7-dimethoxy-3,4-dihydro-1H-isoquinolin-2-yl)-ethyl]-phenyl}-2H-tetrazol-5-yl)-4,5-dimethoxy-phenyl]-amide] | 3.5
COc1cc2c(cc1OC)CN(CCc1ccc(-n3nnc(-c4cc(OC)c(OC)cc4NC(=O)c4cccc5cccnc45)n3)cc1)CC2 [Example 4, quinoline-8-carboxylic acid [2-(2-{4-[2-(6,7-dimethoxy-3,4-dihydro-1H-isoquinolin-2-yl)-ethyl]-phenyl}-2H-tetrazol-5-yl)-4,5-dimethoxy-phenyl]-amide] | 4.3
COc1cc2c(cc1OC)CN(CCc1ccc(-n3nnc(-c4cc(OC)c(OC)cc4NC(=O)c4nccc5ccccc45)n3)cc1)CC2 [Example 5, isoquinoline-1-carboxylic acid [2-(2-{4-[2-(6,7-dimethoxy-3,4-dihydro-1H-isoquinolin-2-yl)-ethyl]-phenyl}-2H-tetrazol-5-yl)-4,5-dimethoxy-phenyl]-amide] | 1.8
COc1cc2c(cc1OC)CN(CCc1ccc(-n3nnc(-c4cc(OC)c(OC)cc4NC(=O)c4ccnc5ccccc45)n3)cc1)CC2 [Example 6, quinoline-4-carboxylic acid [2-(2-{4-[2-(6,7-dimethoxy-3,4-dihydro-1H-isoquinolin-2-yl)-ethyl]-phenyl}-2H-tetrazol-5-yl)-4,5-dimethoxy-phenyl]-amide] | 3.3
COc1cc2c(cc1OC)CN(CCc1ccc(-n3nnc(-c4cc(OC)c(OC)cc4NC(=O)c4cc(OC)c5ccccc5n4)n3)cc1)CC2 [Example 7, 4-methoxy-quinoline-2-carboxylic acid [2-(2-{4-[2-(6,7-dimethoxy-3,4-dihydro-1H-isoquinolin-2-yl)-ethyl]-phenyl}-2H-tetrazol-5-yl)-4,5-methoxy-phenyl]-amide] | 3.3
COc1cc2c(cc1OC)CN(CCc1ccc(-n3nnc(-c4cc(OC)c(OC)cc4NC(=O)c4cnc5ccccc5n4)n3)cc1)CC2 [Example 8, quinoxaline-2-carboxylic acid [2-(2-{4-[2-(6,7-dimethoxy-3,4-dihydro-1H-isoquinolin-2-yl)-ethyl]-phenyl}-2H-tetrazol-5-yl)-4,5-dimethoxy-phenyl]-amide] | 22.0
COc1cc2c(cc1OC)CN(CCc1ccc(-n3nnc(-c4cc(OC)c(OC)cc4NC(=O)c4ccccn4)n3)cc1)CC2 [Example 9, pyridine-2-carboxylic acid [2-(2-{4-[2-(6,7-dimethoxy-3,4-dihydro-1H-isoquinolin-2-yl)-ethyl]-phenyl}-2H-tetrazol-5-yl)-4,5-dimethoxy-phenyl]-amide] | 3.1
COc1cc2c(cc1OC)CN(CCc1ccc(-n3nnc(-c4cc(OC)c(OC)cc4NC(=O)c4cccnc4)n3)cc1)CC2 [Example 10, N-[2-(2-{4-[2-(6,7-dimethoxy-3,4-dihydro-1H-isoquinolin-2-yl)-ethyl]-phenyl}-2H-tetrazol-5-yl)-4,5-dimethoxy-phenyl]-nicotinamide] | 3.0
COc1cc2c(cc1OC)CN(CCc1ccc(-n3nnc(-c4cc(OC)c(OC)cc4NC(=O)c4ccncc4)n3)cc1)CC2 [Example 11, N-[2-(2-{4-[2-(6,7-dimethoxy-3,4-dihydro-1H-isoquinolin-2-yl)-ethyl]-phenyl}-2H-tetrazol-5-yl)-4,5-dimethoxy-phenyl]-isonicotinamide] | 3.2
COc1cc2c(cc1OC)CN(CCc1ccc(-n3nnc(-c4cc(OC)c(OC)cc4NC(=O)c4cnccn4)n3)cc1)CC2 [Example 12, pyrazine-2-carboxylic acid [2-(2-{4-[2-(6,7-dimethoxy-3,4-dihydro-1H-isoquinolin-2-yl)-ethyl]-phenyl}-2H-tetrazol-5-yl)-4,5-dimethoxy-phenyl]-amide] | 3.0
COc1cc2c(cc1OC)CN(CCc1ccc(-n3nnc(-c4cc(OC)c(OC)cc4NC(=O)c4ccccc4)n3)cc1)CC2 [Example 13, N-[2-(2-{4-[2-(6,7-dimethoxy-3,4-dihydro-1H-isoquinolin-2-yl)-ethyl]-phenyl}-2H-tetrazol-5-yl)-4,5-dimethoxy-phenyl]-benzamide] | 3.4
COc1cc2c(cc1OC)CN(CCc1ccc(-n3nnc(-c4cc(OC)c(OC)cc4NC(=O)c4ccc5ccccc5c4)n3)cc1)CC2 [Example 14, naphthalene-2-carboxylic acid [2-(2-{4-[2-(6,7-dimethoxy-3,4-dihydro-1H-isoquinolin-2-yl)-ethyl]-phenyl}-2H-tetrazol-5-yl)-4,5-dimethoxy-phenyl]-amide] | 2.6
COc1cc2c(cc1OC)CN(CCc1ccc(-n3nnc(-c4cc(OC)c(OC)cc4NC(=O)c4ccccc4F)n3)cc1)CC2 [Example 15] | 4.1
COc1cc2c(cc1OC)CN(CCc1ccc(-n3nnc(-c4cc(OC)c(OC)cc4NC(=O)c4cccc(F)c4)n3)cc1)CC2 [Example 16, N-[2-(2-{4-[2-(6,7-dimethoxy-3,4-dihydro-1H-isoquinolin-2-yl)-ethyl]-phenyl}-2H-tetrazol-5-yl)-4,5-dimethoxy-phenyl]-3-fluoro-benzamide] | 6.7
COc1cc2c(cc1OC)CN(CCc1ccc(-n3nnc(-c4cc(OC)c(OC)cc4NC(=O)c4ccc(F)cc4)n3)cc1)CC2 [Example 17, N-[2-(2-{4-[2-(6,7-dimethoxy-3,4-dihydro-1H-isoquinolin-2-yl)-ethyl]-phenyl}-2H-tetrazol-5-yl)-4,5-dimethoxy-phenyl]-4-fluoro-benzamide] | 4.0
COc1cc2c(cc1OC)CN(CCc1ccc(-n3nnc(-c4cc(OC)c(OC)cc4NC(=O)c4ccc(F)c(F)c4)n3)cc1)CC2 [Example 18, N-[2-(2-{4-[2-(6,7-dimethoxy-3,4-dihydro-1H-isoquinolin-2-yl)-ethyl]-phenyl}-2H-tetrazol-5-yl)-4,5-dimethoxy-phenyl]-3,4-difluoro-benzamide] | 3.7
COc1cc2c(cc1OC)CN(CCc1ccc(-n3nnc(-c4cc(OC)c(OC)cc4NC(=O)c4ccsc4)n3)cc1)CC2 [Example 19, thiophene-3-carboxylic acid [2-(2-{4-[2-(6,7-dimethoxy-3,4-dihydro-1H-isoquinolin-2-yl)-ethyl]-phenyl}-2H-tetrazol-5-yl)-4,5-dimethoxy-phenyl]-amide] | 4.5
COc1cc2c(cc1OC)CN(CCc1ccc(-n3nnc(-c4cc(OC)c(OC)cc4NC(=O)c4ccoc4)n3)cc1)CC2 [Example 20, furan-3-carboxylic acid [2-(2-{4-[2-(6,7-dimethoxy-3,4-dihydro-1H-isoquinolin-2-yl)-ethyl]-phenyl}-2H-tetrazol-5-yl)-4,5-dimethoxy-phenyl]-amide] | 3.5
COc1cc2c(cc1OC)CN(CCc1ccc(-n3nnc(-c4cc(OC)c(OC)cc4NC(=O)c4cc(=O)c5ccccc5o4)n3)cc1)CC2 [Example 21, 4-oxo-4H-chromen-2-carboxylic acid [2-(2-{4-[2-(6,7-dimethoxy-3,4-dihydro-1H-isoquinolin-2-yl)-ethyl]-phenyl}-2H-tetrazol-5-yl)-4,5-dimethoxy-phenyl]-amide] | 60.1
COc1cc2c(cc1OC)CN(CCc1ccc(-n3nnc(-c4cc(OC)c(OC)cc4NC(=O)c4cc(=O)c5cc(C)ccc5o4)n3)cc1)CC2 [Example 22, 6-methyl-4-oxo-4H-chromene-2-carboxylic acid [2-(2-{4-[2-(6,7-dimethoxy-3,4-dihydro-1H-isoquinolin-2-yl)-ethyl]-phenyl}-2H-tetrazol-5-yl)-4,5-dimethoxy-phenyl]-amide] | 73.4
COc1cc2c(cc1OC)CN(CCc1ccc(-n3nnc(-c4cc(OC)c(OC)cc4NC(=O)c4cc(=O)c5c(OC)cccc5o4)n3)cc1)CC2 [Example 23, 5-methoxy-4-oxo-4H-chromene-2-carboxylic acid [2-(2-{4-[2-(6,7-dimethoxy-3,4-dihydro-1H-isoquinolin-2-yl)-ethyl]-phenyl}-2H-tetrazol-5-yl)-4,5-dimethoxy-phenyl]-amide] | 49.9
COc1cc2c(cc1OC)CN(CCc1ccc(-n3nnc(-c4cc(OC)c(OC)cc4NC(=O)c4cc(=O)c5cc(F)ccc5o4)n3)cc1)CC2 [Example 24, 6-fluoro-4-oxo-4H-chromene-2-carboxylic acid [2-(2-{4-[2-(6,7-dimethoxy-3,4-dihydro-1H-isoquinolin-2-yl)-ethyl]-phenyl}-2H-tetrazol-5-yl)-4,5-dimethoxy-phenyl]-amide] | 39.3
COc1cc2c(cc1OC)CN(CCc1ccc(-n3nnc(-c4cc(OC)c(OC)cc4NC(=O)c4cc(=O)c5cc(Br)ccc5o4)n3)cc1)CC2 [Example 25, 6-bromo-4-oxo-4H-chromene-2-carboxylic acid [2-(2-{4-[2-(6,7-dimethoxy-3,4-dihydro-1H-isoquinolin-2-yl)-ethyl]-phenyl}-2H-tetrazol-5-yl)-4,5-dimethoxy-phenyl]-amide] | 28.6
COc1cc2c(cc1OC)CN(CCc1ccc(-n3nnc(-c4cc(OC)c(OC)cc4NC(=O)c4cnnc5ccccc45)n3)cc1)CC2 [Example 26, cinoline-4-carboxylic acid [2-(2-{4-[2-(6,7-dimethoxy-3,4-dihydro-1H-isoquinolin-2-yl)-ethyl]-phenyl}-2H-tetrazol-5-yl)-4,5-dimethoxy-phenyl]-amide] | 24.0
COc1cc2c(cc1OC)CN(CCc1ccc(-n3nnc(-c4cc(OC)c(OC)cc4NC(=O)c4coc5ccccc5c4=O)n3)cc1)CC2 [Example 27, 4-oxo-4H-chromene-3-carboxylic acid [2-(2-{4-[2-(6,7-dimethoxy-3,4-dihydro-1H-isoquinolin-2-yl)-ethyl]-phenyl}-2H-tetrazol-5-yl)-4,5-dimethoxy-phenyl]-amide] | 2.1

Reference: patent publication US7625926B2, “P-glycoprotein inhibitor, method for preparing the same and pharmaceutical composition comprising the same” (Hanmi Pharm. Co., Ltd, priority 2003, dated 2009)
